Among the data in ChEMBL document CHEMBL1143712, “Structure-activity relationships of novel N-acyloxy-1,4-dihydropyridines as P-glycoprotein inhibitors” (Bioorg Med Chem, 2007) are Activity values, retold here.

SMILES strings stand for the structures.

Series [1] addresses T1, ATP-dependent translocase ABCB1 (Mus musculus, UniProt P06795). The experiment in a line: Inhibition of P-glycoprotein in MDR mouse T lymphoma cells using rhodamine 123 assessed as ratio of fluorescent uptake relative to untreated control at 10 uM in MDR reversal assay by flow cytometry. The series is classed as cell-based.
For series [2], the target named is T1, ATP-dependent translocase ABCB1. The experiment in a line: Inhibition of P-glycoprotein in MDR mouse T lymphoma cells using rhodamine 123 assessed as ratio of fluorescent uptake relative to untreated control at 1 uM in MDR reversal assay by flow cytometry. It is filed as cell-based.

T1 sequence (P06795 whole entry): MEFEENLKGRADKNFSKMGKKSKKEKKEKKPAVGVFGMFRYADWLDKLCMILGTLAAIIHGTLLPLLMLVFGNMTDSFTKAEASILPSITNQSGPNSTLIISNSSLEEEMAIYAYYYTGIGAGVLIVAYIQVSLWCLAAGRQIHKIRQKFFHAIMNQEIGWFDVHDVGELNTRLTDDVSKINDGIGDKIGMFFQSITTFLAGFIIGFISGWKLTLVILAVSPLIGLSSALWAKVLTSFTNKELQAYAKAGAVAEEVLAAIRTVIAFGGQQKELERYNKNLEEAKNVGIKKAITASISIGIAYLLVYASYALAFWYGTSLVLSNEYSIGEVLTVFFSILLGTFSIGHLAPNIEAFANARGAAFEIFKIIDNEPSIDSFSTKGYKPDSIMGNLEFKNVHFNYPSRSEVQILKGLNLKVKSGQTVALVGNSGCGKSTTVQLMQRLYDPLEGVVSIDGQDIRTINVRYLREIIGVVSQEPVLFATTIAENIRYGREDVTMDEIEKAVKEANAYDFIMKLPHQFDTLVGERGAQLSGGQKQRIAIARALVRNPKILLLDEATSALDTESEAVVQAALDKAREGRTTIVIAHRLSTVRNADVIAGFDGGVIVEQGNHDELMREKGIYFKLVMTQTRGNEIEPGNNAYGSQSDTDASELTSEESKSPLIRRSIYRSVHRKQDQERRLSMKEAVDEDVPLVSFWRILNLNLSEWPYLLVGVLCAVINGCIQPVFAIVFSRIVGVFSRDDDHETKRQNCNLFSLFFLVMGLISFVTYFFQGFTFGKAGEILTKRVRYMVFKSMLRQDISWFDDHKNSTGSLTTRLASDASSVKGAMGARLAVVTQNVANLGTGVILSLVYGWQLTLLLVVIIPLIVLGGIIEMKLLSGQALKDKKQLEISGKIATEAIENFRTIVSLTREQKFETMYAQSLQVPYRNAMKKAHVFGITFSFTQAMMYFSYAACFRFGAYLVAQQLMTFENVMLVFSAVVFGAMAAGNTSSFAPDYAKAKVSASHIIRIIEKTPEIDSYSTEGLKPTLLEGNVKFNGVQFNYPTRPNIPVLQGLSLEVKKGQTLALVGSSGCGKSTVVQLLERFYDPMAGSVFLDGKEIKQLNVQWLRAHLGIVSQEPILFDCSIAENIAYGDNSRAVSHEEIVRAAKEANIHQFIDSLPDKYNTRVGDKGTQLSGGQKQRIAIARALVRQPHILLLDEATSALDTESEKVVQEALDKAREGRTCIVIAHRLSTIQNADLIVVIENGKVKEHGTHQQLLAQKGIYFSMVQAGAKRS

Regarding `CCOC(=O)C1=CN(C(=O)Oc2ccccc2)C=CC1c1ccc(OC)cc1` (configuration not stated), the values for the Activity in series [1] and in series [2] were 19.87 and 1.3, respectively.

On to `CC(=O)C1=CN(C(=O)Oc2ccccc2)C=CC1c1ccc(C)cc1` (configuration not stated), for which the Activity in series [1] is 3.58; in series [2] it was 1.41.

As for `COc1ccc(C2C=CN(C(=O)Oc3ccccc3)C=C2C(C)=O)cc1` (configuration not stated), the Activity was found to be 7.1 in series [1] and 1.81 in series [2].

As to `CCOC(=O)C1=CN(C(=O)Oc2ccccc2)C=CC1c1ccc(C)cc1` (configuration not stated), the Activity was 3.09 in series [1] and 1.04 in series [2].

Consider `CCOC(=O)C1=CN(C(=O)Oc2ccccc2)C=CC1c1ccccc1OC` (configuration not stated), for which the Activity in series [1] is on record as 39.98; in series [2] it was 1.6.

For `COc1ccccc1C1C=CN(C(=O)Oc2ccccc2)C=C1C(C)=O` (configuration not stated), the Activity in series [1] was 5.15; in series [2], 1.01.
